The text below walks through data of patent US11471537B2, “Oligomer extended insulin-Fc conjugates” (Novo Nordisk A/S, priority 2017, dated 2022).

A short description of series [1]: PK studies: intravenous and subcutaneous administration to SD rats, insulin-Fc concentrations by immuno-assay. Format: in vivo. The conditions noted are these: for PK rat sc [T½ (h)] Mean Value: subcutaneous. On the procedure:
Insulin-Fc conjugates were tested in vivo by intravenous and subcutaneous administration to SD rats. Blood samples were collected and the insulin-Fc concentrations were measured by immuno-assay.

Series [2] addresses insulin receptor A (Homo sapiens, UniProt P06213). As to the kind of experiment: Insulin receptor affinity. Format: binding. The conditions noted are these: relative to affinity of human insulin for insulin receptor A (100%).
Series [3] has as its system isolated rat adipocytes. As to the kind of experiment: Insulin-stimulated lipogenesis. It counts as cell-based. As to conditions: 1% HSA; relative to the activity of human insulin (100%). Here is the method:
Insulin-stimulated lipogenesis was measured in isolated rat adipocytes in presence of 1% HSA as described in Moody A J, Stan M A, Stan M, Gliemann J. A Simple Free Fat Cell Bioassay for Insulin. Hormone And Metabolic Research. 1974; 6(1):12-6, see results in Table 6.

Series [4] concerns Sprague-Dawley rats. As to the kind of experiment: PD studies: blood glucose after subcutaneous dosing. Format: in vivo. The conditions noted are these: sc, dose 30 nmol/kg. Here is the method:
The pharmacodynamic effect of the Insulin Fc conjugates of the examples were investigated in normal male Sprague-Dawley rats weighing approx. 350 g at study start.
Animals had free access to food and water during the experiment period. They were dosed subcutaneously in the neck region with a dose of 30 nmol/kg (unless otherwise stated in the figures below). Blood samples for blood glucose and plasma insulin analysis were collected from the tongue veins up to 10 days post dosing. Blood glucose was measured using Biosen S Line (EKF).

Chain of insulin receptor A (P06213 28-1370 isoform P06213-2 limits assumed): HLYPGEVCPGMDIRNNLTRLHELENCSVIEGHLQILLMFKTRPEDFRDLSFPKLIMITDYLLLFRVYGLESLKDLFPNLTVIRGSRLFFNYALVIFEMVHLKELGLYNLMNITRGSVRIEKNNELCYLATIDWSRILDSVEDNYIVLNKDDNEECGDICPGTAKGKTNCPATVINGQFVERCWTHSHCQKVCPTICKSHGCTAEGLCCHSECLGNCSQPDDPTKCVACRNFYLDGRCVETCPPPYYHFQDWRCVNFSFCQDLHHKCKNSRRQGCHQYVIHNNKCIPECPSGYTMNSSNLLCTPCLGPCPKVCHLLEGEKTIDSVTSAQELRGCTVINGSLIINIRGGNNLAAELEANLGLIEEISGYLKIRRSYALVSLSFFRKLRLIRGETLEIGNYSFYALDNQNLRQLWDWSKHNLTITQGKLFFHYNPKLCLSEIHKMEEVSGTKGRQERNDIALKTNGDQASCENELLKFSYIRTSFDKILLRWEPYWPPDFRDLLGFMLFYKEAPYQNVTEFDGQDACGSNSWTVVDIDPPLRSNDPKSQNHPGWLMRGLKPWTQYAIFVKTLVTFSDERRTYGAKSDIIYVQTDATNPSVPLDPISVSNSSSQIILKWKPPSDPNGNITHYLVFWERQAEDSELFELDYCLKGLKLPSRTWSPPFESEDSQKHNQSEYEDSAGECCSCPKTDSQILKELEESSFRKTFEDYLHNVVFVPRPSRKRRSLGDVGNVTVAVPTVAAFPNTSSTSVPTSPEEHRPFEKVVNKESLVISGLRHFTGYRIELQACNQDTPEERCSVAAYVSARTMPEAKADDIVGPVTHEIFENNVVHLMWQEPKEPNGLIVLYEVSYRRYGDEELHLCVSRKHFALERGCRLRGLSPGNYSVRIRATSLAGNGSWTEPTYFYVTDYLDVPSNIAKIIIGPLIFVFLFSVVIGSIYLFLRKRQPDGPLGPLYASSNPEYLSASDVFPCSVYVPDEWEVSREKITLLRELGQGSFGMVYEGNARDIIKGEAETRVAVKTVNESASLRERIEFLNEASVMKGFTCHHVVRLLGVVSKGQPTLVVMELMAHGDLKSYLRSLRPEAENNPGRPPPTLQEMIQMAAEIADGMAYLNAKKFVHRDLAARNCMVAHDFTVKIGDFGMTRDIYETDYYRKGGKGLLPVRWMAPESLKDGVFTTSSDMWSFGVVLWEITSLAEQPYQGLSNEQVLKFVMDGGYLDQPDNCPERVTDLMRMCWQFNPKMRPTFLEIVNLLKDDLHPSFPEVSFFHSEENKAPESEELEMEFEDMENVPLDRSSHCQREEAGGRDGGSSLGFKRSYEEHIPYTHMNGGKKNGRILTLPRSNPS
Chain of insulin receptor A (P06213 763-1382 partner limits assumed): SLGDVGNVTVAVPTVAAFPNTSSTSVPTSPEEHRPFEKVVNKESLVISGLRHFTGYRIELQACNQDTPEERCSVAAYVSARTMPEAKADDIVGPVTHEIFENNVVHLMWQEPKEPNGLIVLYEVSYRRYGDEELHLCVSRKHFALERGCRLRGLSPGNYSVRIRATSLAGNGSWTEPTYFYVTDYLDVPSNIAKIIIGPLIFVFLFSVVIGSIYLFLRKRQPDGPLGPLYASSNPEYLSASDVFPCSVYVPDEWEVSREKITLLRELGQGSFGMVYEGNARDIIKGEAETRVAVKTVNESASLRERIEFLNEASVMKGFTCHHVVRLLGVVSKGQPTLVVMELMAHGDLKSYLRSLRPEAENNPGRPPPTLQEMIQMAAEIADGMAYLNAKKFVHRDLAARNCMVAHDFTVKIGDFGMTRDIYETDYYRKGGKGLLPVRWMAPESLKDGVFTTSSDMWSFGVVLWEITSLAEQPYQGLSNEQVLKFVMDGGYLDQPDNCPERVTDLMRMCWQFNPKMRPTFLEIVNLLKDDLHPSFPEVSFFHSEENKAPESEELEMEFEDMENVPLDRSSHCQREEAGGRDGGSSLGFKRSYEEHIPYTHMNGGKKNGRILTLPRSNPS

For “A14E, B(−78K^), B(−77P), B(−1)(GQAPGQAPGQEP)6-GQAP, B3Q, B25H, B29R, desB30 human insulin/(227A, 234A, 235K hIgG4-Fc(228-447))4-[bis[2-[(2-acetyl)amino]ethyl]amino]-4-oxo-butanoyl Conjugate [Example 5.3]”, in series [1], the “PK rat iv [T½ (h)] Mean Value” is 35.6 h and the “PK rat sc [T½ (h)] Mean Value” came out at 33.1 h. Also, in series [2], the “Insulin receptor affinity [IC50 relative to HI (%)] Mean Value” worked out at 2.57%. Further, the “Lipogenesis in rat adipocytes [Potency (%)] Mean Value” in series [3] amounted to 0.55%.

For “(A1(N(alpha)acetyl), A14E, A21G, A22(GQAP)19, A98K^, A99P, B1(N(alpha)acetyl), B25H, B29R, desB30 human insulin)/(227A, 234A, 235K, 297E, 315Q, 384Q, des447 hIgG4-Fc(228-447))4-[bis[2-[(2-acetyl)amino]ethyl]amino]-4-oxo-butanoyl Conjugate [Example 5.27]”, the Average blood glucose in series [4] (time 0 days) amounted to 5.504 mM; in series [4] (time 0.041667 days) it was 6.308 mM; in series [4] (time 0.125 days), 5.72 mM; in series [4] (time 0.291667 days), 5.164 mM; in series [4] (time 1 day) it was 3.036 mM; in series [4] (time 2 days), 3.852 mM. Further, the Average blood glucose in series [4] (time 3 days) was 4.384 mM; in series [4] (time 4 days) it was 5.272 mM; in series [4] (time 5 days), 5.236 mM; in series [4] (time 6 days), 5.564 mM; in series [4] (time 7 days), 5.824 mM; in series [4] (time 8 days), 5.924 mM. Moreover, the Average blood glucose came to 5.68 mM in series [4] (time 9 days) and 6.12 mM in series [4] (time 10 days). In addition, the “PK rat iv [T½ (h)] Mean Value” in series [1] is 40.7 h. Besides, the “PK rat sc [T½ (h)] Mean Value” in series [1] turned out to be 50.4 h. Moreover, the “Insulin receptor affinity [IC50 relative to HI (%)] Mean Value” in series [2] worked out at 1.07%.

Regarding “(A14E, A21G, A22(GQEP)19, 98K^, A99P, B25H, B29R, desB30 human insulin)/(226A, 227G, 228P, 234A, 235K, des447 hIgG4-Fc(228-447))3,5-bis[(2-acetyl)amino]benzoyl Conjugate [Example 5.33]”, the Average blood glucose is 5.496 mM in series [4] (time 0 days); 5.284 mM in series [4] (time 0.041667 days); 4.716 mM in series [4] (time 0.125 days); 3.744 mM in series [4] (time 0.291667 days); 3.744 mM in series [4] (time 1 day); 2.232 mM in series [4] (time 2 days). Also, the Average blood glucose in series [4] (time 3 days) is 1.844 mM; in series [4] (time 4 days), 2.432 mM; in series [4] (time 5 days), 3.98 mM; in series [4] (time 6 days), 6.132 mM; in series [4] (time 7 days), 5.712 mM; in series [4] (time 8 days), 5.38 mM. Further, the Average blood glucose in series [4] (time 9 days) was 5.316 mM; in series [4] (time 10 days) it was 5.44 mM. In addition, the “Insulin receptor affinity [IC50 relative to HI (%)] Mean Value” in series [2] came out at 3.85%. Further, the “Lipogenesis in rat adipocytes [Potency (%)] Mean Value” in series [3] is given as 5.44%.

In the case of “(A14E, A21G, A22(GQEP)19, A98K^, A99P, B25H, B29R, desB30 human insulin)/(227A, 234A, 235K hIgG4-Fc(228-447))4-[bis[2-[(2-acetyl)amino]ethyl]amino]-4-oxo-butanoyl Conjugate [Example 5.1]”, the Average blood glucose in series [4] (time 0 days) amounted to 6.68 mM; in series [4] (time 0.041667 days), 5.888 mM; in series [4] (time 0.125 days), 4.988 mM; in series [4] (time 0.291667 days) it was 3.752 mM; in series [4] (time 1 day) it was 2.524 mM; in series [4] (time 2 days) it was 2.036 mM. The Average blood glucose in series [4] (time 3 days) was 2.964 mM; in series [4] (time 4 days) it was 3.244 mM; in series [4] (time 6 days) it was 6.508 mM; in series [4] (time 7 days) it was 6.18 mM; in series [4] (time 8 days) it was 5.996 mM. In addition, the “Insulin receptor affinity [IC50 relative to HI (%)] Mean Value” in series [2] was 5.07%. In series [3], the “Lipogenesis in rat adipocytes [Potency (%)] Mean Value” stood at 6.69%.
